Entries after “also recorded” stand apart in the source; their conditions may differ.
Legend:
Type in all cases: in vivo
[1] = system: male ostriches which violently behaved, cried and did not take feed; assay: Alleviation of the violence and stimulation of the appetite in male ostrich; settings: male ostrich 100 kg, intramuscular
Description: (§1) After administration, their behaviors and appetites were observed.

[2] = system: male dogs which violently behaved, cried and did not take feed; assay: Alleviation of the violence and stimulation of the appetite in male dog; settings: male dog 40 kg, intramuscular
Description: as §1

[3] = system: male cats which violently behaved, cried and did not take feed; assay: Alleviation of the violence and stimulation of the appetite in male cat; settings: male cat 1 kg, intramuscular
Description: as §1

[4] = system: male horses which violently behaved, cried and did not take feed; assay: Alleviation of the violence and stimulation of the appetite in male horse; settings: male horse 200 kg, intramuscular
Description: as §1

[5] = system: male goats which violently behaved, cried and did not take feed; assay: Alleviation of the violence and stimulation of the appetite in male goat; settings: male goat 40 kg, intramuscular
Description: as §1

[6] = system: male lion which violently behaved, cried and did not take feed; assay: Alleviation of the violence and stimulation of the appetite in male lion
[7] = 100 mg (1 mg per kg), Experimental Example 1
[8] = 40 mg (1 mg per kg), Experimental Example 20
[9] = 1 mg per Table 5 (1 mg per kg; 100 mg [sic]), Experimental Example 22
[10] = 200 mg (1 mg per kg), Experimental Example 24
[11] = 40 mg (1 mg per kg), Experimental Example 26
[12] = 40 mg (1 mg per kg), Experimental Example 26, listed as 17-decanoate-4-estren-3-one
[13] = male lion 100 kg, 100 mg (1 mg per kg), Experimental Example 28
[14] = male lion 100 kg, 10, 20, 50, 100, 150, 200, 500 and 1000 mg (0.1 to 10 mg per kg), Experimental Example 29

CCCCCCCCCC(=O)O[C@H]1CC[C@H]2[C@@H]3CCC4=CC(=O)CC[C@@H]4[C@H]3CC[C@]12C [17β-decanoate-4-estren-3-one]
Violence and appetite, After administration: appetite ([1]; 10 mg (0.1 mg per kg), Experimental Example 2): stimulated appetite | Violence and appetite, After administration: appetite ([1]; 20 mg (0.2 mg per kg), Experimental Example 2): stimulated appetite | Violence and appetite, After administration: appetite ([1]; 50 mg (0.5 mg per kg), Experimental Example 2): stimulated appetite | Violence and appetite, After administration: appetite [1, 7]: appetite stimulated; also recorded: stimulated appetite | Violence and appetite, After administration: violence [1, 7]: violence of estrus alleviated | feed intake after administration [1, 7]: increased feed intake | Violence and appetite, After administration: appetite ([1]; 100 mg (1.0 mg per kg), Experimental Example 2): stimulated appetite | Violence and appetite, After administration: appetite ([1]; 150 mg (1.5 mg per kg), Experimental Example 2): stimulated appetite | Violence and appetite, After administration: appetite ([1]; 200 mg (2.0 mg per kg), Experimental Example 2): stimulated appetite | Violence and appetite, After administration: appetite ([1]; 500 mg (5.0 mg per kg), Experimental Example 2): stimulated appetite | Violence and appetite, After administration: appetite ([1]; 1000 mg (10 mg per kg), Experimental Example 2): stimulated appetite | Violence and appetite, After administration: appetite ([2]; 4 mg (0.1 mg per kg), Experimental Example 21): stimulated appetite | Violence and appetite, After administration: appetite ([2]; 8 mg (0.2 mg per kg), Experimental Example 21): stimulated appetite | Violence and appetite, After administration: appetite ([2]; 20 mg (0.5 mg per kg), Experimental Example 21): stimulated appetite | Violence and appetite, After administration: appetite [2, 8]: appetite stimulated; also recorded: stimulated appetite | Violence and appetite, After administration: violence [2, 8]: violence of estrus alleviated | feed intake after administration [2, 8]: increased feed intake | Violence and appetite, After administration: appetite ([2]; 40 mg (1.0 mg per kg), Experimental Example 21): stimulated appetite | Violence and appetite, After administration: appetite ([2]; 60 mg (1.5 mg per kg), Experimental Example 21): stimulated appetite | Violence and appetite, After administration: appetite ([2]; 80 mg (2.0 mg per kg), Experimental Example 21): stimulated appetite | Violence and appetite, After administration: appetite ([2]; 200 mg (5.0 mg per kg), Experimental Example 21): stimulated appetite | Violence and appetite, After administration: appetite ([2]; 400 mg (10 mg per kg), Experimental Example 21): stimulated appetite | Violence and appetite, After administration: appetite ([3]; 0.1 mg (0.1 mg per kg), Experimental Example 23): stimulated appetite | Violence and appetite, After administration: appetite ([3]; 0.2 mg (0.2 mg per kg), Experimental Example 23): stimulated appetite | Violence and appetite, After administration: appetite ([3]; 0.5 mg (0.5 mg per kg), Experimental Example 23): stimulated appetite | Violence and appetite, After administration: appetite ([3]; 1 mg (1.0 mg per kg), Experimental Example 23): stimulated appetite | Violence and appetite, After administration: appetite [3, 9]: appetite stimulated; also recorded: stimulated appetite | Violence and appetite, After administration: violence [3, 9]: violence of estrus alleviated | feed intake after administration [3, 9]: increased feed intake | Violence and appetite, After administration: appetite ([3]; 1.5 mg (1.5 mg per kg), Experimental Example 23): stimulated appetite | Violence and appetite, After administration: appetite ([3]; 2 mg (2.0 mg per kg), Experimental Example 23): stimulated appetite | Violence and appetite, After administration: appetite ([3]; 5 mg (5.0 mg per kg), Experimental Example 23): stimulated appetite | Violence and appetite, After administration: appetite ([3]; 10 mg (10 mg per kg), Experimental Example 23): stimulated appetite | Violence and appetite, After administration: appetite ([4]; 20 mg (0.1 mg per kg), Experimental Example 25): stimulated appetite | Violence and appetite, After administration: appetite ([4]; 40 mg (0.2 mg per kg), Experimental Example 25): stimulated appetite | Violence and appetite, After administration: appetite ([4]; 100 mg (0.5 mg per kg), Experimental Example 25): stimulated appetite | Violence and appetite, After administration: appetite [4, 10]: appetite stimulated; also recorded: stimulated appetite | Violence and appetite, After administration: violence [4, 10]: violence of estrus alleviated | feed intake after administration [4, 10]: increased feed intake | Violence and appetite, After administration: appetite ([4]; 200 mg (1.0 mg per kg), Experimental Example 25): stimulated appetite | Violence and appetite, After administration: appetite ([4]; 300 mg (1.5 mg per kg), Experimental Example 25): stimulated appetite | Violence and appetite, After administration: appetite ([4]; 400 mg (2.0 mg per kg), Experimental Example 25): stimulated appetite | Violence and appetite, After administration: appetite ([4]; 1000 mg (5.0 mg per kg), Experimental Example 25): stimulated appetite | Violence and appetite, After administration: appetite ([4]; 2000 mg (10 mg per kg), Experimental Example 25): stimulated appetite | Violence and appetite, After administration: appetite ([5]; 4 mg (0.1 mg per kg), Experimental Example 27): stimulated appetite | Violence and appetite, After administration: appetite ([5]; 8 mg (0.2 mg per kg), Experimental Example 27): stimulated appetite | Violence and appetite, After administration: appetite ([5]; 20 mg (0.5 mg per kg), Experimental Example 27): stimulated appetite | Violence and appetite, After administration: appetite [5, 11]: stimulated appetite | feed intake after administration [5, 11]: increased feed intake | Violence and appetite, After administration: appetite [5, 12]: appetite stimulated | Violence and appetite, After administration: violence [5, 12]: violence of estrus alleviated | Violence and appetite, After administration: appetite ([5]; 40 mg (1.0 mg per kg), Experimental Example 27): stimulated appetite | Violence and appetite, After administration: appetite ([5]; 60 mg (1.5 mg per kg), Experimental Example 27): stimulated appetite | Violence and appetite, After administration: appetite ([5]; 80 mg (2.0 mg per kg), Experimental Example 27): stimulated appetite | Violence and appetite, After administration: appetite ([5]; 200 mg (5.0 mg per kg), Experimental Example 27): stimulated appetite | Violence and appetite, After administration: appetite ([5]; 400 mg (10 mg per kg), Experimental Example 27): stimulated appetite | appetite after intramuscular injection [6, 13]: appetite stimulated | feed intake after administration [6, 13]: increased feed intake | violence of estrus after intramuscular injection [6, 13]: violence of estrus alleviated | appetite after intramuscular injection [6, 14]: appetite stimulated | feed intake after administration [6, 14]: increased feed intake | violence of estrus after intramuscular injection [6, 14]: violence of estrus alleviated

— patent US20040058898A1, “Pharmaceutical composition for alleviating the violence of a mammal comprising nortestosterone derivatives” (priority 2002, published 2004)
